According to patent US9018224B2, “Substituted cyclopropyl compounds useful as GPR119 agonists” (Merck Sharp & Dohme Corp., priority 2011, dated 2015):

What follows are molecules tested against T1, human GPR119 (Homo sapiens, UniProt Q8TDV5) (assay: Measurement of GPR119 signaling by cAMP (LANCE cAMP kit or HTRF) in HEK293 cells transfected with human GPR119). Details: agonist cAMP response in HEK293 cells stably transfected with human GPR119; patent does not say which of the two cAMP formats (LANCE or HTRF).
T1 sequence (Q8TDV5 1-308 limits assumed): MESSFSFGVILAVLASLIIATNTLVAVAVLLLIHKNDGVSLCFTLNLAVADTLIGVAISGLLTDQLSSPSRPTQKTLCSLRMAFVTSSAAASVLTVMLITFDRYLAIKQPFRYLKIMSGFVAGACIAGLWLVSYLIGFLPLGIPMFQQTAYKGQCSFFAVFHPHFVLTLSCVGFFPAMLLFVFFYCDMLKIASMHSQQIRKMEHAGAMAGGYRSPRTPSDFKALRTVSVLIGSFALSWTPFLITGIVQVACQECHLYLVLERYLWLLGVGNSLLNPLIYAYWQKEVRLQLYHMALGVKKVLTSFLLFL
Type: cell-based
Experimental: Measurement of GPR119 Signaling Using LANCE 384-Well cAMP Kit
The adenylate cyclase assay was constructed following the LANCE™ cAMP Kit (Perkin Elmer, AD0264) instructions. […] The reaction was stopped by incubating with the supplied detection buffer containing the europium chelate of the Eu-SA/Biotin-cAMP tracer for 3 hours. The assay was performed in duplicate in a 384 well plate for duplicate plates. […] Basal activity was determined using a DMSO control and maximum response was defined as cAMP stimulation produced by an internal agonist control. Standard cAMP concentrations were assayed concurrently for conversion of fluorescence signal to cAMP level. The data was analyzed using 4-parameter curve fit in Microsoft Excel
Measurement of GPR119 Signaling Using a Cyclic AMP (cAMP) Homogenous Time Resolved Fluorescence (HTRF) Assay
Chinese hamster ovary (CHO) cell lines stably transfected with the permissive guanine nucleotide binding protein alpha 15 (Gα15) and murine GPR119 were maintained in DMEM media containing FBS, penicillin-streptomycin, puromycin, and G418 (geneticin). […] Agonist activation of the GPR119 receptor was measured in receptor transfected cells described above, treated with compounds of this invention, using a commercial homogenous time resolved fluorescence (HTRF) kit for measurement of cAMP (CisBio, Bedford, Mass.). The assay was performed in 96-well half-volume plates (murine) or 384-well plates (human) following the manufacturers instructions. Briefly, suspended cells were incubated with a dose titration of test compound at room temperature for 60 min, lysed, and incubated with HTRF reagents for an additional 60 min. The plate was read using an Envision multilabel reader (Perkin Elmer) adjusted to read time resolved fluorescence and the cAMP concentrations were extrapolated from a cAMP calibration curve. […] The concentration of test compound required to stimulate a half-maximal response (EC50), and efficacy as compared to an internal agonist control, was determined from a sigmoidal 4-parameter curve fit of the resulting plot of normalized activity versus compound concentration.

Row | SMILES | EC50 [nM]
1 | COCc1cnc(N2CCC([C@H]3CC3CCOc3cc(F)c(CCO)c(F)c3)CC2)nc1 (stereo in doubt) [Example 240, 2-{2,6-Difluoro-4-[2-((1R,2R)-2-{1-[5-(methoxymethyl)pyrimidin-2-yl]piperidin-4-yl}cyclopropyl)ethoxy]phenyl}ethanol] | 7.2
2 | O=C(Cc1ccc(OCC[C@@H]2C[C@@H]2C2CCN(c3ncc(Cl)cn3)CC2)cc1)N1CCC1 [Example 1, 1-(azetidin-1-yl)-2-[4-(2-{(1S,2R)-2-[1-(5-chloropyrimidin-2-yl)piperidin-4-yl]cyclopropyl}ethoxy)phenyl]ethanone] | 0.79
3 | O=C(Cc1ccc(OCC[C@@H]2C[C@@H]2C2CCN(c3ncc(Cl)cn3)CC2)cc1)NC1CC1 [Example 2] | 1.8
4 | O=C(Cc1ccc(OCC[C@@H]2C[C@@H]2C2CCN(c3ncc(Cl)cn3)CC2)cc1)N1CCCC1 [Example 3] | 2.1
5 | O=C(Cc1ccc(OCC[C@@H]2C[C@@H]2C2CCN(c3ncc(Cl)cn3)CC2)cc1)N1CCOCC1 [Example 5] | 3.6
6 | O=C(Cc1ccc(OCC[C@@H]2C[C@@H]2C2CCN(c3ncc(Cl)cn3)CC2)cc1)N1CC(F)C1 [Example 6] | 0.89
7 | COCc1cnc(N2CCC([C@H]3C[C@H]3CCOc3ccc(CC(=O)N4CC(O)C4)cc3)CC2)nc1 [Example 7, 1-(3-hydroxyazetidin-1-yl)-2-(4-{2-[(1S,2R)-2-{1-[5-(methoxymethyl)pyrimidin-2-yl]piperidin-4-yl}cyclopropyl]ethoxy}phenyl)ethanone] | 7.7
8 | COCc1cnc(N2CCC([C@H]3C[C@H]3CCOc3ccc(CC(=O)N4CC(OC)C4)cc3)CC2)nc1 [Example 8] | 2.9
9 | COCc1cnc(N2CCC([C@H]3C[C@H]3CCOc3ccc(CC(=O)N4CCC4)cc3)CC2)nc1 [Example 9] | 3.8
10 | COCc1cnc(N2CCC([C@H]3C[C@H]3CCOc3ccc(CC(=O)N4CCOCC4)cc3)CC2)nc1 [Example 10] | 8.3
11 | COCc1cnc(N2CCC([C@H]3C[C@H]3CCOc3ccc(CC(=O)N4CC(F)C4)cc3)CC2)nc1 [Example 11] | 2.9
12 | COCc1cnc(N2CCC([C@H]3C[C@H]3CCOc3ccc(CC(=O)N4CC(F)(F)C4)cc3)CC2)nc1 [Example 12] | 3
13 | COCc1cnc(N2CCC([C@H]3C[C@H]3CCOc3ccc(CC(=O)N4CC(C)(C)C4)cc3)CC2)nc1 [Example 13] | 5.2
14 | COCc1cnc(N2CCC([C@H]3C[C@H]3CCOc3ccc(CC(=O)N4CC(C)C4)cc3)CC2)nc1 [Example 14] | 5.5
15 | Cc1cc(OCC[C@@H]2C[C@@H]2C2CCN(c3ncc(Cl)cn3)CC2)ccc1CC(=O)N1CCC1 [Example 15, 1-(azetidin-1-yl)-2-[4-(2-{(1S,2R)-2-[1-(5-chloropyrimidin-2-yl)piperidin-4-yl]cyclopropyl}ethoxy)-2-methylphenyl]ethanone] | 0.73
16 | CCc1cnc(N2CCC([C@H]3C[C@H]3CCOc3ccc(CC(=O)N4CCC4)c(C)c3)CC2)nc1 [Example 16] | 1.1
17 | Cc1cc(OCC[C@@H]2C[C@@H]2C2CCN(c3ncc(Cl)cn3)CC2)ccc1CC(=O)N(C)C [Example 18, 2-[4-(2-{(1S,2R)-2-[1-(5-chloropyrimidin-2-yl)piperidin-4-yl]cyclopropyl}ethoxy)-2-methylphenyl]-N,N-dimethylacetamide] | 1.7
18 | CCc1cnc(N2CCC([C@H]3C[C@H]3CCOc3ccc(CC(=O)N(C)C)c(C)c3)CC2)nc1 [Example 19] | 2.3
19 | O=C(Cc1ccc(OCC[C@@H]2C[C@@H]2C2CCN(c3ncc(Cl)cn3)CC2)cc1Cl)N1CCC1 [Example 20, 1-(azetidin-1-yl)-2-[2-chloro-4-(2-{(1S,2R)-2-[1-(5-chloropyrimidin-2-yl)piperidin-4-yl]cyclopropyl}ethoxy)phenyl]ethanone] | 0.32
20 | CCc1cnc(N2CCC([C@H]3C[C@H]3CCOc3ccc(CC(=O)N4CCC4)c(Cl)c3)CC2)nc1 [Example 21] | 0.19
21 | COCc1cnc(N2CCC([C@H]3C[C@H]3CCOc3ccc(CC(=O)N4CCC4)c(Cl)c3)CC2)nc1 [Example 22] | 0.83

Row | SMILES | EC50 [nM]
22 | N#Cc1cc(OCC[C@@H]2C[C@@H]2C2CCN(c3ncc(Cl)cn3)CC2)ccc1CC(=O)N1CCC1 [Example 23, 2-[2-(azetidin-1-yl)-2-oxoethyl]-5-(2-{(1S,2R)-2-[1-(5-chloropyrimidin-2-yl)piperidin-4-yl]cyclopropyl}ethoxy)benzonitrile] | 0.32
23 | CCc1cnc(N2CCC([C@H]3C[C@H]3CCOc3ccc(CC(=O)N4CCC4)c(C#N)c3)CC2)nc1 [Example 24] | 0.4
24 | COCc1cnc(N2CCC([C@H]3C[C@H]3CCOc3ccc(CC(=O)N4CCC4)c(C#N)c3)CC2)nc1 [Example 25] | 1.4
25 | COc1cc(OCC[C@@H]2C[C@@H]2C2CCN(c3ncc(Cl)cn3)CC2)ccc1CC(=O)N1CCC1 [Example 26, 1-(azetidin-1-yl)-2-[4-(2-{(1S,2R)-2-[1-(5-chloropyrimidin-2-yl)piperidin-4-yl]cyclopropyl}ethoxy)-2-methoxyphenyl]ethanone] | 7.1
26 | CCc1cnc(N2CCC([C@H]3C[C@H]3CCOc3ccc(CC(=O)N4CCC4)c(OC)c3)CC2)nc1 [Example 27] | 3.2
27 | COCc1cnc(N2CCC([C@H]3C[C@H]3CCOc3ccc(CC(=O)N(C)C)c(Cl)c3)CC2)nc1 [Example 28, 2-(2-chloro-4-{2-[(1S,2R)-2-{1-[5-(methoxymethyl)pyrimidin-2-yl]piperidin-4-yl}cyclopropyl]ethoxy}phenyl)-N,N-dimethylacetamide] | 2.3
28 | COCc1cnc(N2CCC([C@H]3C[C@H]3CCOc3ccc(CC(=O)N4CC(O)C4)c(Cl)c3)CC2)nc1 [Example 29] | 2.4
29 | COCc1cnc(N2CCC([C@H]3C[C@H]3CCOc3ccc(CC(=O)N4CC(OC)C4)c(Cl)c3)CC2)nc1 [Example 30] | 0.86
30 | COCc1cnc(N2CCC([C@H]3C[C@H]3CCOc3ccc(CC(=O)N4CC(C)(O)C4)c(Cl)c3)CC2)nc1 [Example 31] | 1.5
31 | COCc1cnc(N2CCC([C@H]3C[C@H]3CCOc3ccc(CC(=O)N4CCOCC4)c(Cl)c3)CC2)nc1 [Example 32] | 1.1
32 | COc1cnc(N2CCC([C@H]3C[C@H]3CCOc3ccc(CC(=O)N4CC(O)C4)c(F)c3)CC2)nc1 [Example 33, 2-[2-fluoro-4-(2-{(1S,2R)-2-[1-(5-methoxypyrimidin-2-yl)piperidin-4-yl]cyclopropyl}ethoxy)phenyl]-1-(3-hydroxyazetidin-1-yl)ethanone] | 2.1
33 | COc1cnc(N2CCC([C@H]3C[C@H]3CCOc3ccc(CC(=O)N4CC(OC)C4)c(F)c3)CC2)nc1 [Example 34] | 0.98
34 | COc1cnc(N2CCC([C@H]3C[C@H]3CCOc3ccc(CC(=O)N4CC(C)(O)C4)c(F)c3)CC2)nc1 [Example 35] | 2.2
35 | COc1cnc(N2CCC([C@H]3C[C@H]3CCOc3ccc(CC(=O)N(C)C)c(F)c3)CC2)nc1 [Example 36] | 1.7
36 | COc1cnc(N2CCC([C@H]3C[C@H]3CCOc3ccc(CC(=O)N4CCC4)c(F)c3)CC2)nc1 [Example 37] | 0.94
37 | COc1cnc(N2CCC([C@H]3C[C@H]3CCOc3ccc(CC(=O)N4CCOCC4)c(F)c3)CC2)nc1 [Example 38] | 1.4
38 | COc1cnc(N2CCC([C@H]3C[C@H]3CCOc3ccc(CC(=O)N4CC(F)C4)c(F)c3)CC2)nc1 [Example 39] | 0.48
39 | COc1cnc(N2CCC([C@H]3C[C@H]3CCOc3ccc(CC(=O)N4CC(F)(F)C4)c(F)c3)CC2)nc1 [Example 40] | 0.42
40 | COCc1cnc(N2CCC([C@H]3C[C@H]3CCOc3ccc(CC(=O)N4CCC4)c(F)c3)CC2)nc1 [Example 41, 1-(azetidin-1yl)-2-(2-fluoro-4-{2 [(1S,2R)-2-{1-[5-(methoxylmethyl)pyrimidin-2yl]piperidin-4-yl}cyclopropyl]ethoxyl}phenyl)ethanone] | 0.77
41 | COCc1cnc(N2CCC([C@H]3C[C@H]3CCOc3ccc(CC(=O)N4CC(O)C4)c(F)c3)CC2)nc1 [Example 42] | 3.4
